{
  "source": "patent US10716830B2",
  "about": "“ERBB4 activator screening assay” (Children's Hospital Los Angeles, priority 2011, dated 2020)",
  "type_in_all_cases": "cell-based, mouse",
  "key": {"YAMC-B4 cells [1]": {"test_system": "YAMC-B4 cells", "assay": "Cell migration/restitution (modified scratch) assay", "settings": "8 h", "method": "Cells grown on fibronectin-coated plates were subjected to multiple circular wounds with a rotating silicone probe as previously described (Corredor, J., Yan, F., Shen, C. C., Tong, W., John, S. K., Wilson, G., Whitehead, R., and Polk, D. B. (2003) American journal of physiology. Cell physiology 284, C953-961). Cultures were photographed immediately and 8 h after wounding; % closure was determined by measuring wounds in Image.\nTo test the potential effect of NRG4-ErbB4 signaling on cell motility, we used a modified scratch assay for restitution/migration (Corredor, J., Yan, F., Shen, C. C., Tong, W., John, S. K., Wilson, G., Whitehead, R., and Polk, D. B. (2003) American journal of physiology. Cell physiology 284, C953-961). Over an 8 h period, NRG4 had no effect on the rate at which YAMC-B4 cells moved into the denuded area of a culture plate (FIG. 4C), while in contrast EGF caused a 54% increase in migration over control."}, "COX-2": {"test_system": "COX-2", "assay": "COX-2 expression in YAMC-B4 cells", "settings": "6 h exposure", "method": "(§1) To identify signaling pathways which could be involved in NRG4-stimulated cell survival, we exposed YAMC-B4 cells to NRG4 or EGF and prepared whole cell lysates for western blot analysis. […] Furthermore, COX-2 expression, which is induced by either HRG-1β or EGF after 6 h exposure, and is required for cell survival induced by ErbB4-EGFR dimers (Frey, M. R., Hilliard, V. C., Mullane, M. T., and Polk, D. B. (2010) Laboratory Investigation 90, 1415-1424), was not induced by NRG4. Thus, NRG4 promotes cell survival through pathways at least partly distinct from those activated by other ligands."}, "[2]": {"test_system": "EGFR, ErbB2, ErbB3, and ErbB4", "assay": "ErbB receptor phosphorylation by western blot with phospho-specific antibodies", "settings": "YAMC-B4 cells (human ErbB4 construct); 10 min; HRG-1β 100 ng/ml, NRG4, EGF 10 ng/ml", "from_the_text": "Conditionally immortalized, non-transformed young adult mouse colon (YAMC) epithelial cells were provided by Dr. Robert Whitehead (Whitehead, R. H., VanEeden, P. E., Noble, M. D., Ataliotis, P., and Jat, P. S. (1993) Proc Natl Acad Sci USA 90, 587-591). These cells express low levels of endogenous ErbB4; YAMC-B4 cells expressing a human ErbB4 construct were generated as previously described (Frey, M. R., Edelblum, K. L., Mullane, M. T., Liang, D., and Polk, D. B. (2009) Gastroenterology 136, 217-226). […]\n(§2) Cell lysates were extracted in modified RIPA buffer as previously described (Frey, M. R., Dise, R. S., Edelblum, K. L., and Polk, D. B. (2006) Embo J 25, 5683-5692), cleared by centrifugation, and boiled in Laemmli sample buffer. Samples were separated on SDS-polyacrylamide gels (6-10% as appropriate), blotted on PVDF membranes, and subjected to quantitative immunoblot using the Li-Cor Odyssey infrared detection system. Equal loading was monitored by immunoblots for actin and at least one additional protein.\nPhosphorylation of EGFR, ErbB2, ErbB3, and ErbB4 was determined by western blot analysis of cell lysates using phospho-specific antibodies. […]"}, "Akt": {"test_system": "Akt", "assay": "Akt phosphorylation in whole cell lysates by western blot", "settings": "YAMC-B4 cells; NRG4 100 ng/ml, 10 min", "from_the_text": "as §2, §1"}, "ERK MAPK": {"test_system": "ERK MAPK", "assay": "ERK MAPK phosphorylation in whole cell lysates by western blot", "settings": "YAMC-B4 cells; NRG4 100 ng/ml, 10 min", "from_the_text": "as §2, §1"}, "YAMC-B4 cells [3]": {"test_system": "YAMC-B4 cells", "assay": "EdU proliferation assay", "settings": "24 h stimulation", "method": "Proliferative index in fixed colon specimens was assessed by immunohistochemical stain for Ki-67. In vitro, cells were exposed to vehicle or growth factors for 24 h, then labeled with 5-ethynyl-2-deoxyuridine (EdU) for 2 h and fixed. Nuclei were marked with DAPI, and incorporated EdU was detected using a Click-iT EdU kit (Invitrogen).\nMost ErbB ligands stimulate multiple cellular processes, including proliferation and migration, in colon epithelial cells (Frey, M. R., Golovin, A., and Polk, D. B. (2004) J Biol Chem 279, 44513-44521). To determine if NRG4 is similarly broad in its cellular effects, we subjected YAMC-B4 cells to proliferation assays in the presence of NRG4. […] In vivo, the number of Ki67-positive nuclei per crypt in PBS vs. NRG4-injected mice was not altered 24 h post-injection (FIG. 4B)."}},
  "data": [
    {"substance": "epidermal growth factor (NSYPGCPSSYDGYCLNGGVCMHIESLDSYTCNCVIGYSGDRCQTRDLRWWELR; Epidermal growth factor; UniProt P01132 977-1029, looked up) [EGF, Recombinant murine EGF from Peprotech; positive control for cell stimulation, reference compound]", "values": [
      {"measurement": "increase in migration over control", "setting": "YAMC-B4 cells [1]", "result": 54, "unit": "%"},
      {"measurement": "COX-2 expression", "setting": "COX-2", "result": "induced"},
      {"measurement": "phosphorylation of EGFR, ErbB2, ErbB3, and ErbB4", "setting": "[2]", "result": "stimulated phosphorylation of multiple ErbBs"},
      {"measurement": "phosphorylation of Akt", "setting": "Akt", "result": "activated both cascades"},
      {"measurement": "phosphorylation of ERK MAPK", "setting": "ERK MAPK", "result": "activated both cascades"},
      {"measurement": "stimulation of proliferation over control (EdU)", "setting": "YAMC-B4 cells [3]", "result": 31.5, "unit": "%"}
    ]}
  ]
}
